From ChEMBL document CHEMBL1201862, “PubChem BioAssay data set” (2004)
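Growth conditions: 96-well plates. Treatment: test compound, 48 hours, 5 concentrations. Analysis: linear interpolation between bracketing concentrations; unreached endpoints set to highest concentration. GI50 is the concentration that inhibits growth by half.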 Calls of active or inactive are those of the source. No stated cut-off is given here; in the data, active = GI50 up to about 1.1 µM and inactive = higher.

What was measured:
Experiment in all cases: inhibition of tumour cell growth, NCI panel, 48 h
[1] = tested on: TK-10
[2] = tested on: HCC 2998
[3] = tested on: SK-OV-3
[4] = tested on: CAKI-1
[5] = tested on: SNB-19
[6] = tested on: SF-268
[7] = tested on: OVCAR-4
[8] = tested on: SK-MEL-5
[9] = tested on: MDA-N
[10] = tested on: IGROV-1
[11] = tested on: U-251
[12] = tested on: A498
[13] = tested on: M14
[14] = tested on: HCT-15
[15] = tested on: KM12
[16] = tested on: MOLT-4
[17] = tested on: Malme-3M
[18] = tested on: SW-620
[19] = tested on: SF-539

O=C1c2ccccc2C(=O)N1C1(C(=O)NC2(C(=O)O)CCCC2)CCCC1
GI50 [1]: > 100 µM (inactive)
GI50 [2]: > 100 µM (inactive)
GI50 [3]: > 100 µM (inactive)
GI50 [4]: > 100 µM (inactive)
GI50 [5]: > 100 µM (inactive)
GI50 [6]: > 100 µM (inactive)
GI50 [7]: > 100 µM (inactive)
GI50 [8]: > 100 µM (inactive)
GI50 [9]: > 100 µM (inactive)
GI50 [10]: > 100 µM (inactive)
GI50 [11]: > 100 µM (inactive)
GI50 [12]: > 100 µM (inactive)
GI50 [13]: > 100 µM (inactive)
GI50 [14]: > 100 µM
GI50 [15]: > 100 µM (inactive)
GI50 [16]: > 100 µM (inactive)
GI50 [17]: > 100 µM (inactive)
GI50 [18]: > 100 µM (inactive)

C=C([C@@]1(O)C[C@H]2[C@H](CCC2(OC)OC)[C@@H]2c3ccccc3O[C@@H]21)[Si](C)(C)C
GI50 [1]: > 100 µM (inactive)
GI50 [2]: > 100 µM (inactive)
GI50 [3]: > 100 µM (inactive)
GI50 [4]: > 100 µM (inactive)
GI50 [5]: > 100 µM (inactive)
GI50 [6]: > 100 µM (inactive)
GI50 [7]: > 100 µM (inactive)
GI50 [8]: > 100 µM (inactive)
GI50 [9]: > 100 µM (inactive)
GI50 [10]: > 100 µM (inactive)
GI50 [11]: > 100 µM (inactive)
GI50 [12]: > 100 µM (inactive)
GI50 [13]: > 100 µM (inactive)
GI50 [14]: > 100 µM
GI50 [15]: > 100 µM (inactive)
GI50 [19]: > 100 µM (inactive)
GI50 [16]: > 100 µM (inactive)
GI50 [18]: > 100 µM (inactive)

CC1(C)Oc2ccc3c(=O)cc(-c4cccs4)oc3c2C1C(=O)O (configuration not stated)
GI50 [1]: > 100 µM (inactive)
GI50 [2]: > 100 µM (inactive)
GI50 [3]: > 100 µM (inactive)
GI50 [4]: 23.2 µM (inactive)
GI50 [6]: > 100 µM (inactive)
GI50 [8]: > 100 µM (inactive)
GI50 [9]: > 100 µM (inactive)
GI50 [10]: > 100 µM (inactive)
GI50 [11]: > 100 µM (inactive)
GI50 [12]: > 100 µM (inactive)
GI50 [13]: > 100 µM (inactive)
GI50 [19]: > 100 µM (inactive)
GI50 [16]: > 100 µM (inactive)
GI50 [17]: > 100 µM (inactive)

Cc1nc(Nc2ccccc2Cl)sc1C(=O)CC(=O)C(N)=O
GI50 [1]: > 100 µM (inactive)
GI50 [2]: 51.4 µM (inactive)
GI50 [3]: 44.9 µM (inactive)
GI50 [4]: > 100 µM (inactive)
GI50 [5]: 41 µM (inactive)
GI50 [6]: > 100 µM (inactive)
GI50 [7]: > 100 µM (inactive)
GI50 [9]: 19.4 µM (inactive)
GI50 [10]: 39.3 µM (inactive)
GI50 [11]: 41.9 µM (inactive)
GI50 [12]: 19.7 µM (inactive)
GI50 [13]: 75.3 µM (inactive)
GI50 [14]: 33.7 µM
GI50 [15]: 13.2 µM (inactive)
GI50 [19]: 76.4 µM (inactive)
GI50 [16]: 26.4 µM (inactive)
GI50 [18]: 29 µM (inactive)

O=S1(=O)c2ccccc2C(=NO)c2ccccc21
GI50 [1]: > 100 µM (inactive)
GI50 [2]: > 100 µM (inactive)
GI50 [3]: > 100 µM (inactive)
GI50 [4]: > 100 µM (inactive)
GI50 [6]: > 100 µM (inactive)
GI50 [7]: > 100 µM (inactive)
GI50 [8]: 70.3 µM (inactive)
GI50 [9]: > 100 µM (inactive)
GI50 [10]: 64 µM (inactive)
GI50 [11]: > 100 µM (inactive)
GI50 [12]: > 100 µM (inactive)
GI50 [13]: > 100 µM (inactive)
GI50 [14]: > 100 µM
GI50 [15]: > 100 µM (inactive)
GI50 [19]: > 100 µM (inactive)
GI50 [16]: 30.3 µM (inactive)
GI50 [18]: > 100 µM (inactive)

COC(=O)[C@]1(CCC(C)=O)C(=O)C=CN([C@H](C)c2ccccc2)[C@@H]1Cc1ccc(OC)c(OCc2ccccc2)c1I
GI50 [1]: 21.5 µM (inactive)
GI50 [2]: 14.2 µM (inactive)
GI50 [3]: 35.4 µM (inactive)
GI50 [4]: 29.2 µM (inactive)
GI50 [5]: 22.5 µM (inactive)
GI50 [6]: 15.4 µM (inactive)
GI50 [7]: 19.3 µM (inactive)
GI50 [8]: 13.9 µM (inactive)
GI50 [9]: 18.7 µM (inactive)
GI50 [10]: 12.6 µM (inactive)
GI50 [11]: 17.3 µM (inactive)
GI50 [12]: 22.5 µM (inactive)
GI50 [13]: 15 µM (inactive)
GI50 [14]: 18.9 µM
GI50 [15]: 19.2 µM (inactive)
GI50 [19]: 16.6 µM (inactive)
GI50 [16]: 12.4 µM (inactive)
GI50 [18]: 32.9 µM (inactive)
